Structures can show the parent of a compound that is named as a salt.
Columns and labels:
[1] = system: bleomycin-induced pulmonary fibrosis; assay: Efficacy in a mouse model of bleomycin-induced pulmonary fibrosis; assay type: in vivo, ICR mice; settings: 1 mg/kg orally twice a day, day 28
Experimental: ICR mice (12 weeks old, male gender) were intravenously dosed with bleomycin (10 mg/kg) daily for 10 days. Test compound 1 was suspended in 0.5% methylcellulose solution and administered orally twice a day beginning the first day of bleomycin treatment till the day immediately preceding sacrifice. A control group received 0.5% methylcellulose solution in the like manner. Twenty-eight (28) days reckoning from administration of the initial dose of bleomycin, the mice were sacrificed, the lungs were isolated, and the lung hydroxyproline content was determined in accordance with Woessner's method. Histopathological specimens were also prepared at the same time and the degree of fibrotic change was evaluated after Azan-Mallory staining.

[2] = system: silica-induced pulmonary fibrosis; assay: Efficacy in a mouse model of silica-induced pulmonary fibrosis; assay type: in vivo, C57BL/6 mice; settings: for Hydroxyproline content: lungs isolated 16 days after silica, Mean ± SE
Experimental: Using C57BL/6 mice (8 weeks old, male gender), the neck was incised under pentobarbital anesthesia and silica (2 mg/0.1 ml/animal) was administered intra-tracheally. A sham operated intact group received physiological saline in the same manner. The drug was orally administered daily beginning the day of silica treatment till the day immediately preceding sacrifice. Thus, test compound 1 and tranilast were respectively administered once after silica treatment and twice daily on the next and subsequent days, in morning and evening. In the sham operated and control groups, 0.5% methylcellulose was similarly administered. Sixteen (16) days after sensitization, the mice were bled to death under pentobarbital anesthesia and the lungs were isolated. The hydroxyproline content of the isolated lungs was assayed and used as an indicator of pulmonary fibrosis. The difference in mean value between the control group and the treatment group or the sham operated group was tested by one-way analysis of variance and Dunnett multiple-comparison test.

[3] = Oral acute toxicity in rats; assay type: in vivo
[4] = system: acetic acid-induced colitis; assay: Efficacy in a rat model of acetic acid-induced colitis; assay type: in vivo, SD rats; settings: po, inhibition of lesion score, read-out: Degree of inhibition
Experimental: Male SD rats (7-8 weeks old) were deprived of food for 24 hours and a suspension of test compound 2 in 0.5% methylcellulose solution was administered orally. Thirty (30) minutes later, 1 ml/rat of 4% acetic acid in saline was infused from the anus under ether anesthesia. An intact group received a saline infusion. The infusion was carried out over 20 seconds. Then, the animal was held in inverted upright position for 30 seconds, after which 2 ml of phosphate buffer solution was infused for washout. Twenty-four (24) hours later, the animal was sacrificed by carbon dioxide inhalation, the large intestine was isolated, and the local lesion was scored according to the following criteria. Lesion score 0. No lesion 1. Hyperemia without ulceration 2. Inflammation (hyperemia and thickening of the bowel wall) or ulceration without definite inflammation 3. Ulceration with inflammation at 1 site 4. Ulceration with inflammation at 2 or more sites 5. A large ulcer sized 1 cm or more 6-10. An ulcer sized 2 cm or more; 1 point added for each increment of 1 cm

Question: Which results are given for `O=C(Nc1nnn[nH]1)c1cc(Oc2ccccc2)c2ccccn2c1=O` [Test compound 1, N-[5-(1H-tetrazolyl)]-1-phenoxy-4H-quinolizin-4-one-3-carboxamide sodium salt]?
Answer: Histopathological examination, degree of fibrotic change ([1]; Azan-Mallory staining): definite inhibition of pulmonary fibrosis; inhibition at 1 mg/kg ([1]; Mus musculus, po, 672 h, inhibition of lung hydroxyproline content, read-out: Degree of inhibition): 88.6%; Hydroxyproline content ([2]; 1 mg/kg orally twice daily, n=10): **144.41±9.69 µg/lung; inhibition at 1 mg/kg ([2]; Mus musculus, po, 384 h, inhibition of lung hydroxyproline content, 1 mg/kg orally twice daily, day 16, read-out: Degree of inhibition): 88.7%

Question: Which results are given for `O=C(Nc1nnn[nH]1)c1cc(Oc2ccccc2)c2ccccn2c1=O` [Test compound 2, N-[5-(1H-tetrazolyl)]-1-phenoxy-4H-quinolizin-4-one-3-carboxamide sodium salt monohydrate]?
Answer: oral acute toxicity LD50 ([3]; female gender): ≥ 5 g/kg/day; oral acute toxicity LD50 ([3]; male gender): 4.5 g/kg/day; inhibition at 1 mg/kg ([4]; 1 mg/kg orally): 38.3%; inhibition at 10 mg/kg ([4]; 10 mg/kg orally): 68.1%

Question: For `COc1ccc(/C=C/C(=O)Nc2ccccc2C(=O)O)cc1OC` [Tranilast, reference compound], which Hydroxyproline content ([2]; 100 mg/kg orally twice daily, n=9) is on record?
Answer: 224.66±18.44 µg/lung

Question: And the inhibition at 100 mg/kg ([2]; Mus musculus, po, 384 h, inhibition of lung hydroxyproline content, 100 mg/kg orally twice daily, day 16, read-out: Degree of inhibition)?
Answer: 13.6%
